In the oligonucleotide strings, read from the 5' end, every base follows the letter of its sugar. An asterisk marks phosphorothioate; unmarked linkages are phosphodiester. Other units and linkages are bracketed, terminal groups are in braces. A string of capitals states the bases alone. e = 2'-O-(2-methoxyethyl) (MOE); {FITC} = fluorescein label; [5mC] = 5-methylcytosine; d = 2'-deoxy (DNA)
Tests used:
EGFR [1] = target: T1, EGFR (Homo sapiens, UniProt P00533); test: Pull-down assay in the presence of EGF; format: binding; set-up: endogenous in cells; host or cells: A431 cells
Experimental: A431 cells were treated with 100 ng/mL, 200 ng/mL, or 400 ng/mL EGF and then lysed. The cell lysates were mixed with beads bound to compound no. 451104, as prepared as in Example 1. Proteins were eluted with compound no. 116847 and run on a SDS-PAGE followed by western blot, as in Example 1. The same membrane was sequentially blotted for total EGFR (T-EGFR), phosphorylated EGFR (P-EGFR, ab205827, Abcam), nucleolin (ab22758, Abcam), and TCP1β. […] 451104 to EGFR.
In a similar experiment in which EGF was added after cell lysis, A431 cells were lysed and mixed with beads bound to compound no. 451104. Varying concentrations of EGF were added during the elution step with compound no. 116847.

Purified recombinant EGF [2] = target: T2, Purified recombinant EGF (Homo sapiens, UniProt P01133); test: Membrane binding assay, EGF
T2 construct: purchased ThermoFisher PHG0311L
T2 sequence (P01133 971-1023 limits assumed): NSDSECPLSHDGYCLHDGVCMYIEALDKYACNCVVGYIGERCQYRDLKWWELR
Experimental: (§1) A membrane binding assay was performed to test the binding affinities of modified oligonucleotides to EGF and EGFR. Purified recombinant EGF (PHG0311L, ThermoFisher) or EGFR protein (PV3872, ThermoFisher) were incubated with FITC-labeled phosphorothioate oligonucleotide, compound no. 256903 or FITC-labeled phosphate oligonucleotide, PO-ASO, in binding buffer (20 mM Tris-HCl, pH 7.5, 150 mM NaCl, 1 mM DTT, 10% glycerol) for 1 hr at 37° C. Each reaction contained purified EGF at 3 nM to 3 μM or recombinant EGFR at 5 nM to 150 nM. Samples were loaded onto a hyband ECL nitrocellulose membrane (GE Healthcare) and soaked in wash buffer (20 mM Tris-HcCl, pH 7.5, 250 mM NaCl). Protein-bound ASOs were transferred to the membrane by applying a vaccum in a 96-well Bio-Rad Bio-Dot apparatus. After washing, membranes were air-dried and scanned using a phoshoimager (GE Healthcare). Kds were calculated for compound no. 256903 using Prism. The results below represent an average of three replicate experiments. […] In contrast, compound no. 256903 bound to both EGF and EGFR, with a higher affinity for EGFR than for EGF.

Purified recombinant EGF [3] = target: T2, Purified recombinant EGF; test: Membrane binding assay, EGF; conditions: [EGF] 2.5 nM
EGFR [4] = target: T1, EGFR; test: Membrane binding assay, EGFR; set-up: purchased ThermoFisher PV3872
Experimental: as §1

EGFR [5] = target: T1, EGFR; test: Membrane binding assay, EGFR; set-up: purchased ThermoFisher PV3872; conditions: EGFR 2.3 nM (head prints [EGF])

Biotin-TEG-^mCesTesGes^mCesTesAdsGds^mCds^mCdsTds^mCds^ioUdsGdsGdsAdsTesTGesTesGesAe [compound 451104]
competition by exogenous EGF for binding to EGFR (EGFR [1]; A431 cells treated with 100, 200 or 400 ng/mL EGF, then lysed): did not compete | recovery of EGFR, nucleolin, or TCP1β from the beads on direct addition of EGF (EGFR [1]; EGF added to cell lysates during elution): did not significantly alter

FITC-^mCesTesGes^mCesTesAdsGds^mCds^mCdsTds^mCdsTdsGdsGdsAdsTesTesTesGesAe (antisense {FITC}-e[5mC]*eT*eG*e[5mC]*eT*dA*dG*d[5mC]*d[5mC]*dT*d[5mC]*dT*dG*dG*dA*eT*eT*eT*eG*eA) [compound 256903]
interaction with EGF (Purified recombinant EGF [2]; EGF 3 nM to 3 μM): bound | Relative intensity (%) (Purified recombinant EGF [2]; [EGF] 5 nM): 10.2% | Relative intensity (%) (Purified recombinant EGF [2]; [EGF] 10 nM): 12.0% | Relative intensity (%) (Purified recombinant EGF [2]; [EGF] 20.9 nM): 12.8% | Relative intensity (%) (Purified recombinant EGF [2]; [EGF] 41.9 nM): 13.7% | Relative intensity (%) (Purified recombinant EGF [2]; [EGF] 93.8 nM): 15.7% | Relative intensity (%) (Purified recombinant EGF [2]; [EGF] 187.5 nM): 17.0% | Relative intensity (%) (Purified recombinant EGF [2]; [EGF] 375 nM): 22.3% | Relative intensity (%) (Purified recombinant EGF [2]; [EGF] 750 nM): 72.3% | Relative intensity (%) (Purified recombinant EGF [2]; [EGF] 1500 nM): 95.2% | Relative intensity (%) (Purified recombinant EGF [2]; [EGF] 3000 nM): 97.3% | Kd (Purified recombinant EGF [2]; binding affinity for EGF, average of three replicate experiments): 0.57 ± 0.17 µM | Relative intensity (%) (Purified recombinant EGF [3]): 8.8% | Relative intensity (%) (EGFR [4]; EGFR 4.7 nM (head prints [EGF])): 9.0% | interaction with EGFR (EGFR [4]; EGFR 5 nM to 150 nM): bound | Relative intensity (%) (EGFR [4]; EGFR 9.4 nM (head prints [EGF])): 9.0% | Relative intensity (%) (EGFR [4]; EGFR 18.8 nM (head prints [EGF])): 10.3% | Relative intensity (%) (EGFR [4]; EGFR 37.5 nM (head prints [EGF])): 40.5% | Relative intensity (%) (EGFR [4]; EGFR 75 nM (head prints [EGF])): 80.0% | Relative intensity (%) (EGFR [4]; EGFR 150 nM (head prints [EGF])): 102.7% | Kd (EGFR [4]; binding affinity for EGFR, average of three replicate experiments): 0.0515 ± 0.0093 µM | Relative intensity (%) (EGFR [5]): 7.0%
